In the assay the test system is IL-2 production. As to the kind of experiment: Inhibition of IL-2 production in PHA-activated Jurkat cells (ELISA). Conditions: Homo sapiens, PHA 2.5 μg/mL, IL-2 ELISA. The class given is cell-based. As for the experimental part: Jurkat cells were placed in a 96 well plate (0.5 million cells per well in 1% FBS medium) then a test compound of this invention was added at different concentrations. After 10 minutes, the cells were activated with PHA (final concentration 2.5 μg/mL) and incubated for 20 hours at 37° C. under CO2. The final volume was 200 μL. Following incubation, the cells were centrifuged and the supernatants collected and stored at −70° C. prior to assaying for IL-2 production. A commercial ELISA kit (IL-2 Eli-pair, Diaclone Research, Besancon, France) was used to detect production of IL-2, from which dose response curves were obtained.

Counter-ions that a name gives are not always drawn.

In turn, `COc1ccc(OC)c(-c2csc(NC(=O)c3c(F)cccc3F)n2)c1` [Compound 2, N-[4-(2,5-Dimethoxy-phenyl)-thiazol-2-yl]-2,6-difluoro-benzamide] came in with an IC50 (Jurkat, 20 h) of more than 1000 nM.
Still for that read-out and setting: under `COc1ccc(OC)c(-c2cnc(NC(=O)c3c(F)cccc3F)s2)c1` [Compound 3, N-[5-(2,5-Dimethoxy-phenyl)-thiazol-2-yl]-2,6-difluoro-benzamide] stands 100 to 200 nM.
On the same count and under the same terms, next, `O=C(Nc1ncc(-c2cc(C(F)(F)F)ccc2Cl)s1)c1c(F)cccc1F` [Compound 4, N-[5-(2-Chloro-5-trifluoromethyl-phenyl)-thiazol-2-yl]-2,6-difluoro-benzamide]: 50 to 100 nM; `N#Cc1cccc(-c2cnc(NC(=O)c3c(F)cccc3F)s2)c1` [Compound 6, N-[5-(3-Cyano-phenyl)-thiazol-2-yl]-2,6-difluoro-benzamide]: more than 1000 nM.
`Cn1nnc(-c2cccc(-c3cnc(NC(=O)c4c(F)cccc4F)s3)c2)n1` [Compound 7, 2,6-Difluoro-N-{5-[3-(2-methyl-2H-tetrazol-5-yl)-phenyl]-thiazol-2-yl}-benzamide]: for the setting “Jurkat, 20 h”, the IC50 was more than 1000 nM.
In turn, `COC(=O)c1cccc(-c2sc(NC(=O)c3c(F)cccc3F)nc2C)c1` [Compound 8, 3-[2-(2,6-Difluoro-benzoylamino)-4-methyl-thiazol-5-yl]-benzoic acid methyl ester] had an IC50 (Jurkat, 20 h) of 200 to 500 nM.
Still for that read-out and setting: next, `Cc1nc(NC(=O)c2c(F)cccc2F)sc1-c1cccc(C(F)(F)F)c1` [Compound 9, 2,6-Difluoro-N-[4-methyl-5-(3-trifluoromethyl-phenyl)-thiazol-2-yl]-benzamide]: 30 to 50 nM.
On the same count and under the same terms, under `Cc1nc(NC(=O)c2ccncc2F)sc1-c1cccc(C(F)(F)F)c1` [Compound 10, 3-Fluoro-N-[4-methyl-5-(3-trifluoromethyl-phenyl)-thiazol-2-yl]-isonicotinamide] stands more than 1000 nM; under `Cc1nnsc1C(=O)Nc1nc(C)c(-c2cccc(C(F)(F)F)c2)s1` [Compound 12, 4-Methyl-[1,2,3]thiadiazole-5-carboxylic acid [4-methyl-5-(3-trifluoromethyl-phenyl)-thiazol-2-yl]-amide], more than 1000 nM; under `Cc1nc(NC(=O)c2c(F)cccc2F)sc1-c1cccc(C#N)c1` [Compound 13, N-[5-(3-Cyano-phenyl)-4-methyl-thiazol-2-yl]-2,6-difluoro-benzamide], 100 to 200 nM.
Same read-out and setting: next, `O=C(Nc1nnc(-c2cc(C(F)(F)F)ccc2Cl)s1)c1c(F)cccc1F` [Compound 44, N-[5-(2-Chloro-5-trifluoromethyl-phenyl)-[1,3,4]thiadiazol-2-yl]-2,6-difluoro-benzamide]: more than 1000 nM.
For `Cc1nc(NC(=O)c2c(F)cccc2F)sc1-c1cccc(C(F)(F)F)c1` [Compound 48, Sodium (2,6-difluorobenzoyl)(4-methyl-5-(3-(trifluoromethyl)phenyl)thiazol-2-yl)amide], the concentration for half-maximal inhibition (IC50) (20 hours) fell in the range of 50 to 100 nM.
Under “Jurkat, 20 h”, `Cc1nc(NC(=O)c2cccnc2F)sc1-c1cccc(C(F)(F)F)c1` [Compound 50, 2-Fluoro-N-(4-methyl-5-(3-(trifluoromethyl)phenyl)thiazol-2-yl)nicotinamide] yielded an IC50 of 200 to 500 nM.
As for `Cc1ncccc1C(=O)Nc1nc(C)c(-c2cccc(C(F)(F)F)c2)s1` [Compound 51, 2-Methyl-N-(4-methyl-5-(3-(trifluoromethyl)phenyl)thiazol-2-yl)nicotinamide], the half-inhibitory concentration (IC50) (Jurkat, 20 h) was more than 1000 nM.
As to `O=C(Nc1nc(C2CC2)c(-c2cccc(C(F)(F)F)c2)s1)c1c(F)cccc1F` [Compound 52, N-(4-Cyclopropyl-5-(3-(trifluoromethyl)phenyl)thiazol-2-yl)-2,6-difluorobenzamide], the half-maximal inhibitory concentration (IC50) (Jurkat, 20 h) lay in the range of 50 to 100 nM.
On the same count and under the same terms, next, `Cc1cnccc1C(=O)Nc1nc(C2CC2)c(-c2cccc(C(F)(F)F)c2)s1` [Compound 53, N-(4-cyclopropyl-5-(3-(trifluoromethyl)phenyl)thiazol-2-yl)-3-methylisonicotinamide]: 50 to 100 nM.
Still for that read-out and setting: next, `Cc1nc(NC(=O)c2c(F)cccc2F)sc1-c1ccncc1` [Compound 54, 2,6-Difluoro-N-(4-methyl-5-(pyridin-4-yl)thiazol-2-yl)benzamide hydrobromide]: more than 1000 nM; `COc1ccc(OC)c(-c2sc(NC(=O)c3c(F)cccc3F)nc2C)c1` [Compound 55, N-(5-(2,5-Dimethoxyphenyl)-4-methylthiazol-2-yl)-2,6-difluorobenzamide]: 200 to 500 nM; `Cc1nc(NC(=O)c2c(F)cccc2F)sc1-c1cc(Br)c2c(c1)OCO2` [Compound 56, N-(5-(7-Bromobenzo[d][1,3]dioxol-5-yl)-4-methylthiazol-2-yl)-2,6-difluorobenzamide]: 200 to 500 nM.
Still for that read-out and setting: next, `Cc1nc(NC(=O)c2c(F)cccc2F)sc1-c1ccc2c(c1)OCO2` [Compound 57, N-(5-(Benzo[d][1,3]dioxol-5-yl)-4-methylthiazol-2-yl)-2,6-difluorobenzamide]: 200 to 500 nM; `Cc1nc(NC(=O)c2c(F)cccc2F)sc1-c1cc(C#N)c2c(c1)OCO2` [Compound 58, N-(5-(7-Cyanobenzo[d][1,3]dioxol-5-yl)-4-methylthiazol-2-yl)-2,6-difluorobenzamide]: 200 to 500 nM.
Take `Cc1nc(NC(=O)c2c(F)cccc2F)sc1-c1ccc(Br)s1` [Compound 59, N-(5-(5-Bromothiophen-2-yl)-4-methylthiazol-2-yl)-2,6-difluorobenzamide]: the IC50 (Jurkat, 20 h) is 100 to 200 nM.
Still for that read-out and setting: under `Cc1nc(NC(=O)c2c(F)cccc2F)sc1-c1cc(Br)sc1Br` [Compound 61, N-(5-(2,5-Dibromothiophen-3-yl)-4-methylthiazol-2-yl)-2,6-difluorobenzamide] stands 200 to 500 nM.
`Cc1nc(NC(=O)c2c(F)cccc2F)sc1-c1ccsc1` [Compound 62, 2,6-Difluoro-N-(4-methyl-5-(thiophen-3-yl)thiazol-2-yl)benzamide] displayed an IC50 (Jurkat, 20 h) of more than 1000 nM.
Compound `C=CCOc1ccc(C(F)(F)F)cc1-c1sc(NC(=O)c2c(F)cccc2F)nc1C(=O)OC` [Compound 63, Methyl 5-(2-(allyloxy)-5-(trifluoromethyl)phenyl)-2-(2,6-difluorobenzamido)thiazole-4-carboxylate] came in with a concentration for half-maximal inhibition (IC50) (Jurkat, 20 h) of more than 1000 nM.
Same read-out and setting: next, `C=CCOc1ccc(C(F)(F)F)cc1-c1sc(NC(=O)c2c(F)cccc2F)nc1C(=C)C` [Compound 64, N-(5-(2-(Allyloxy)-5-(trifluoromethyl)phenyl)-4-(prop-1-en-2-yl)thiazol-2-yl)-2,6-difluorobenzamide]: more than 1000 nM.
Still for that read-out and setting: under `C=CCOc1ccc(C(F)(F)F)cc1-c1cnc(NC(=O)c2c(F)cccc2F)s1` [Compound 65, N-(5-(2-(Allyloxy)-5-(trifluoromethyl)phenyl)thiazol-2-yl)-2,6-difluorobenzamide] stands more than 1000 nM.
For the setting “Jurkat, 20 h”, `O=C(O)c1nc(NC(=O)c2c(F)cccc2F)sc1-c1cccc(C(F)(F)F)c1` [Compound 66, 2-(2,6-difluorobenzamido)-5-(3-(trifluoromethyl)phenyl)thiazole-4-carboxylic acid] had an IC50 of more than 1000 nM.
In turn, `O=Cc1nc(NC(=O)c2c(F)cccc2F)sc1-c1cccc(C(F)(F)F)c1` [Compound 67, 2,6-Difluoro-N-(4-formyl-5-(3-(trifluoromethyl)phenyl)thiazol-2-yl)benzamide] came in with an IC50 (Jurkat, 20 h) of more than 1000 nM.
Still for that read-out and setting: under `CC(C)(O)c1nc(NC(=O)c2c(F)cccc2F)sc1-c1cccc(C(F)(F)F)c1` [Compound 68, 2,6-Difluoro-N-(4-(2-hydroxypropan-2-yl)-5-(3-(trifluoromethyl)phenyl)thiazol-2-yl)benzamide] stands more than 1000 nM.
The compound `C=C(C)c1nc(NC(=O)c2c(F)cccc2F)sc1-c1cccc(C(F)(F)F)c1` [Compound 68a, 2,6-difluoro-N-(4-(prop-1-en-2-yl)-5-(3-(trifluoromethyl)phenyl)thiazol-2-yl)benzamide] had a concentration for half-maximal inhibition (IC50) (Jurkat, 20 h) of 50 to 100 nM.
The same measure, in the same setting: under `CC(C)c1nc(NC(=O)c2c(F)cccc2F)sc1-c1cccc(C(F)(F)F)c1` [Compound 69, 2,6-Difluoro-N-(4-isopropyl-5-(3-(trifluoromethyl)phenyl)thiazol-2-yl)benzamide] stands 200 to 500 nM; under `O=C(Nc1nc(CCl)c(-c2cccc(C(F)(F)F)c2)s1)c1c(F)cccc1F` [Compound 70, N-(4-(Chloromethyl)-5-(3-(trifluoromethyl)phenyl)thiazol-2-yl)-2,6-difluorobenzamide], more than 1000 nM; under `O=C(Nc1nc(/C=N\O)c(-c2cccc(C(F)(F)F)c2)s1)c1c(F)cccc1F` [Compound 72, (Z)-2,6-difluoro-N-(4-((hydroxyimino)methyl)-5-(3-(trifluoromethyl)phenyl)thiazol-2-yl)benzamide], more than 1000 nM.
On the same count and under the same terms, next, `N#Cc1nc(NC(=O)c2c(F)cccc2F)sc1-c1cccc(C(F)(F)F)c1` [Compound 73, N-(4-Cyano-5-(3-(trifluoromethyl)phenyl)thiazol-2-yl)-2,6-difluorobenzamide]: 200 to 500 nM; `CC(O)c1nc(NC(=O)c2c(F)cccc2F)sc1-c1cccc(C(F)(F)F)c1` (centres unmarked) [Compound 74, 2,6-Difluoro-N-(4-(1-hydroxyethyl)-5-(3-(trifluoromethyl)phenyl)thiazol-2-yl)benzamide]: more than 1000 nM; `C=Cc1nc(NC(=O)c2c(F)cccc2F)sc1-c1cccc(C(F)(F)F)c1` [Compound 75, 2,6-Difluoro-N-(5-(3-(trifluoromethyl)phenyl)-4-vinylthiazol-2-yl)benzamide]: 200 to 500 nM.
For the compound `O=C(Nc1nc(-c2cnco2)c(-c2cccc(C(F)(F)F)c2)s1)c1c(F)cccc1F` [Compound 76, 2,6-Difluoro-N-(4-(oxazol-5-yl)-5-(3-(trifluoromethyl)phenyl)thiazol-2-yl)benzamide], the IC50 (Jurkat, 20 h) was in the range of 50 to 100 nM.

For the origin of these results see patent US8455658B2, “Thiazole and thiadiazole compounds for inflammation and immune-related uses” (Synta Pharmaceuticals Corp., priority 2006, dated 2013).
